Assay results published in publication PMC5972519 (Journal of pharmaceutical and biomedical analysis, 2016).

Legend:
[1] = Plasma pharmacokinetics of; format: in vivo, Wistar rat; conditions: for concentration at 30 min / concentration at 40 min: male, Wistar, rat, ip; for concentration at 30 min / concentration at 40 min / t1/2 / Cmax / Tmax: plasma; for t1/2 Ratio (A/C): Acute Arm t1/2 / Chronic Arm t1/2 (fold reduction by 14-day dosing); for Plasma concentration Ratio (C/A): Chronic Arm / Acute Arm; for Plasma concentration at 30 min after ip administration: Acute Arm, single ip 40 mg/kg (R,S)-Ket
[2] = Partitioning between whole blood and plasma; format: in vitro ADME; conditions: mouse whole blood, spiked 10, 1 and 0.1 μM, 30 min at 37°C
[3] = Acute: single ip 40 mg/kg (R,S)-Ket
[4] = Acute: single ip 40 mg/kg (R,S)-Ket, 40 mg/kg
[5] = Sub-chronic: Day 14 of ip 40 mg/kg (R,S)-Ket once per day for 14 days

NC1(c2ccccc2Cl)CCC=CC1=O (racemic) [(R,S)-DHNK, (R,S)-dehydronorketamie]
Plasma concentration at any sampling time ([1]; after ip 40 mg/kg (R,S)-Ket, both arms): ≤ 10 ng/mL
Share of compound found in the plasma fraction after incubation with whole blood [2]: < 20%

CNC1(c2ccccc2Cl)CCCCC1=O (racemic) [(R,S)-Ket, (R,S)-Ketamine, reference compound]
Plasma concentration between 5 min and 60 min post-administration [1, 3]: > 1,000 ng/ml
concentration at 30 min ([1]; 40 mg/kg): 2780 ng/mL
concentration at 40 min ([1]; 40 mg/kg): 2600 ng/mL
Share of compound found in the plasma fraction after incubation with whole blood [2]: > 90%

NC1(c2ccccc2Cl)CCCCC1=O (racemic) [(R,S)-norKet, (R,S)-norketamine]
Fold reduction of relative plasma concentration by subchronic dosing ([1]; 30 min post dosing, subchronic versus acute): 1.6 fold
t1/2 Ratio (A/C) [1]: 1.4
Plasma concentration between 5 min and 60 min post-administration [1, 3]: > 1,000 ng/ml
Plasma concentration Ratio (C/A) ([1]; 30 min post dosing): 0.62
concentration at 30 min ([1]; 40 mg/kg): 2130 ng/mL
concentration at 40 min ([1]; 40 mg/kg): 1340 ng/mL
Share of compound found in the plasma fraction after incubation with whole blood [2]: > 90%

NC1(c2ccccc2Cl)CC(O)CCC1=O [(2S,4R;2R,4S)-HNK, (2S,4R;2R,4S)-hydroxynorketamine]
Plasma concentration at 30 min after ip administration [1]: 218 ng/mL
Plasma concentration between 5 min and 60 min post-administration [1, 3]: > 50 ng/mL
Plasma concentration at 10 min post-dosing [1, 4]: 257 ± 195 ng/mL
Plasma concentration Ratio (C/A) ([1]; 30 min post dosing): 1.7
Plasma concentration Ratio (C/A) ([1]; 30 min post dosing, listed as (2S,4R,2R,4S)-HNK): 1.73
t1/2 [1, 5]: 5.0 h

NC1(c2ccccc2Cl)CC(O)CCC1=O [(2S,4S;2R,4R)-HNK]
Plasma concentration between 5 min and 60 min post-administration [1, 3]: > 50 ng/mL
Plasma concentration at 10 min post-dosing [1, 4]: 196 ± 132 ng/mL

NC1(c2ccccc2Cl)CCC(O)CC1=O [(2S,5S;2R,5R)-HNK]
Plasma concentration at 10 min post-dosing [1, 3]: 181 ± 141 ng/mL
Plasma concentration between 5 min and 60 min post-administration [1, 3]: > 50 ng/mL

NC1(c2ccccc2Cl)CCCC(O)C1=O [(2S,6R;2R,6S)-HNK, (2S,6R;2R,6S)-hydroxynorketamine]
Plasma concentration at 30 min after ip administration [1]: 172 ng/mL
Plasma concentration at 10 min post-dosing [1, 3]: 252 ± 81 ng/mL
Plasma concentration between 5 min and 60 min post-administration [1, 3]: > 50 ng/mL
Plasma concentration Ratio (C/A) ([1]; 30 min post dosing): 4.5
Plasma concentration Ratio (C/A) ([1]; 30 min post dosing, listed as (2S,6R,2R,6S)-HNK): 4.53
Cmax [1, 5]: 2101 ng/mL
t1/2 [1, 5]: 1.3 h

N[C@@]1(c2ccccc2Cl)CCC[C@@H](O)C1=O [(2S,6S;2R,6R)-HNK, (2S,6S;2R,6R)-hydroxynorketamine]
t1/2 Ratio (A/C) [1]: 1.2
Plasma concentration at 30 min after ip administration [1]: 4327 ng/mL
Plasma concentration between 5 min and 60 min post-administration [1, 3]: > 1,000 ng/ml
Cmax [1, 3]: 4641 ± 2020 ng/mL
Tmax [1, 3]: 0.61 ± 0.35 h
t1/2 ([1]; Acute: single ip 40 mg/kg (R,S)-Ket, male Wistar rats): 13.2 ± 3.7 h
Plasma concentration Ratio (C/A) ([1]; 30 min post dosing): 1.4
Plasma concentration Ratio (C/A) ([1]; 30 min post dosing, listed as (2S,6S,2R,6R)-HNK): 1.42
Plasma concentration at 72 hr post-administration ([1]; Sub-chronic, Day 14 dose): 15 ± 7 ng/mL
Cmax [1, 5]: 6491 ± 3008 ng/mL
Tmax [1, 5]: 0.78 ± 0.19 h
t1/2 [1, 5]: 11.1 ± 1.8 h
